These results are taken from US20220204540A1, “ESTERS OF NON- AROMATIC HETEROCYCLIC COMPOUNDS HAVING A NEMATOCIDAL ACTIVITY, THEIR AGRONOMIC COMPOSITIONS AND USE THEREOF” (ISAGRO S.p.A., priority 2019, published 2022).

In the assay the test system is Meloidogyne sp. As to the kind of experiment: Nematocidal activity against Meloidogyne sp. on potted cucumber/tomato plants in greenhouse (soil treatment). The assay is classed as in vivo. To be noted: for GALL INDEX (scale 0-10) / FRESH WEIGHT OF PLANT: cucumber cv Chinese Long; for GALL INDEX (scale 0-10): dose applied 2 kg/hectare (2000 g/hectare), survey 30 days after transplantation, Bridge-Page scale, 0 = 0% of root affected, 10 = 100% infested root; for FRESH WEIGHT OF PLANT: dose applied 2 kg/hectare, healthy blank 23 g, infested blank 3.5 g; for FRESH WEIGHT OF PLANT / effectiveness with respect to the reference products (CR1, CR2), in words: 30 days after transplantation; for effectiveness with respect to the reference products (CR1, CR2), in words: Table 6, cucumber, 2 kg/hectare. The procedure:
sDetermination of the Nematocidal Activity Against Meloidogyne sp.
The tests aimed at testing the nematicidal activity of the product under examination were carried out using inoculae taken from a farming of Meloidogyne sp. maintained on potted tomato and cucumber plants and grown in greenhouses.
To carry out the experiments, portions of roots having a good number of galls and soil were taken from the infested pots, in which larvae were present starting from the second stage of age.
New pots having a diameter of 15 cm were half filled with sterile soil. The portions of infested roots, previously cleaned, were placed on the same in order to be able to correctly assess the degree of infestation and ensure that each pot contains the same nematic charge. 200-300 g of infested soil were subsequently added, then covered with a thin layer of sterile soil.
The treatment was carried out by pouring 100 ml of solution on the surface of the soil, in which the product to be tested was dissolved.
Tomato or cucumber seedlings at the stage of two or three true leaves were transplanted in the pots thus prepared, one or seven days after application. Different cultivars of tomato or cucumber were used, having a different sensitivity to the parasite and different growth times. In particular, a variety of ornamental tomatoes (cv Microtom), whose seedlings are small in size and are able to reach the ripeness of the fruit in pots and under greenhouse conditions in about two months, was used for assessing the final production.
The containment capacity of the parasite was detected, 30 and 60 days after transplantation, considering the development of the root system (where 100% is the development reached by the healthy comparative root), the fresh weight of the plants treated expressed in grams, and the presence of galls on the roots. The latter was estimated using the infestation scale proposed by Bridge-Page, according to which the value zero corresponds to 0% of the root affected and the value 10 corresponds to 100% of infested root.
Table 6 indicates the results relating to the effectiveness on cucumbers, cv Chinese Long, treating with Compounds Nr. 23, 620, 1, 13, 5, 15, 16, 624 and 625 included in general formula (I) and the reference compounds CR1=Fluensulfone and CR2, described in JP 2000038379, instead of the compound having general formula (I), at a dose of 2000 g/hectare and effecting the survey 30 days after transplantation.

With `O=S(=O)(CCC(F)=C(F)F)c1ncc(Cl)s1` [CR1, 5-chloro-2-(3,4,4-trifluoro-3-butenylsulfonyl)-thiazole, reference compound], the “GALL INDEX (scale 0-10)” value is listed as 2 and the “FRESH WEIGHT OF PLANT” value was 5.5 g.
`O=C(OCCC(F)=C(F)F)c1cccnc1` [CR2, pyridyl-3-carboxylate of 3,4,4-trifluoro-3-butenyl, reference compound]: the “GALL INDEX (scale 0-10)” value stood at 2.9 and the “FRESH WEIGHT OF PLANT” value came out at 17.5 g.
In the case of `CC(=O)N1C(C(=O)OCCC(F)=C(F)F)COC1(C)C(F)(F)F` (stereo not shown) [Compound 16, (N-acetyl-2-trifluoromethyl-2-methyl)-1,3-oxazolidine-4-carboxylate of 3,4,4-trifluoro-3-butenyl], the “effectiveness with respect to the reference products (CR1, CR2), in words” value (“effectiveness” for short) was “comparable or greater effectiveness”; the “GALL INDEX (scale 0-10)” value was found to be 2.9; the “FRESH WEIGHT OF PLANT” value is on record as 18 g.
For `CC(=O)N1CCC[C@H]1C(=O)OCCC(F)=C(F)F` [Compound 624, N-acetyl-L-proline 3,4,4-trifluorobut-3-en-1-yl ester], the “effectiveness” value is reported as “comparable or greater effectiveness”; the “GALL INDEX (scale 0-10)” value worked out at 1.5; the “FRESH WEIGHT OF PLANT” value was 21 g.
For `O=C(OCCC(F)=C(F)F)[C@@H]1CCCN1C(=O)C(F)(F)F` [Compound 625, N-trifluoroacetyl-L-proline 3,4,4-triflluorobut-3-en-1-yl ester] the same measures were “comparable or greater effectiveness”, 2.5 and 22 g.
As for “N-acetyl-1,3-thiadiazolidine-4-carboxylate of 3,4,4-trifluoro-3-butenyl [Compound 23]”, the “effectiveness” value is “comparable or greater effectiveness”; the “GALL INDEX (scale 0-10)” value was 2; the “FRESH WEIGHT OF PLANT” value was 23 g.
